Reference: publication PMC5218480 (PLoS ONE, 2017)

System: MV-4-11 cells
Test: Gene expression microarray analysis (Affymetrix PrimeView) and GSEA
Type: cell-based, human
Parameters: RFU PODN (11730768_x_at) / Fold change /veh PODN (11730768_x_at) / RFU LINC00158 (11744669_a_at) / Fold change /veh LINC00158 (11744669_a_at) / RFU DUSP10 (11751237_a_at) / Fold change /veh DUSP10 (11751237_a_at) / RFU ID3 (11757404_x_at) / Fold change /veh ID3 (11757404_x_at) / RFU PLEKHG5 (11737974_s_at) / Fold change /veh PLEKHG5 (11737974_s_at) / RFU LRRC4B (11730491_at) / Fold change /veh LRRC4B (11730491_at) / RFU GIMAP4 (11747438_a_at) / Fold change /veh GIMAP4 (11747438_a_at) / RFU KRT8 (11758183_x_at) / Fold change /veh KRT8 (11758183_x_at) / RFU CNN1 (11734310_a_at) / Fold change /veh CNN1 (11734310_a_at) / RFU VPS37D (11726825_at) / Fold change /veh VPS37D (11726825_at) / RFU C10orf10 (11716522_x_at) / Fold change /veh C10orf10 (11716522_x_at) / RFU KIR2DL2 /// KIR2DL4 /// KIR2DL5A /// KIR2DL5B /// KIR2DS1 /// KIR2DS2 /// KIR2DS3 /// KIR2DS4 /// KIR3DL3 /// KIR3DL3 /// KIR3DS1 (11738374_at) / Fold change /veh KIR2DL2 /// KIR2DL4 /// KIR2DL5A /// KIR2DL5B /// KIR2DS1 /// KIR2DS2 /// KIR2DS3 /// KIR2DS4 /// KIR3DL3 /// KIR3DL3 /// KIR3DS1 (11738374_at) / RFU C1QL1 (11718748_at) / Fold change /veh C1QL1 (11718748_at) / RFU TMPRSS4 (11747572_a_at) / Fold change /veh TMPRSS4 (11747572_a_at) / RFU HAMP (11756126_x_at) / Fold change /veh HAMP (11756126_x_at) / RFU RNFT2 (11725882_a_at) / Fold change /veh RNFT2 (11725882_a_at) / RFU NR4A2 (11747474_a_at) / Fold change /veh NR4A2 (11747474_a_at) / RFU ABCC12 (11746883_a_at) / Fold change /veh ABCC12 (11746883_a_at) / RFU TMEM136 (11760407_x_at) / Fold change /veh TMEM136 (11760407_x_at) / RFU CLDN22 /// WWC2 (11732394_at) / Fold change /veh CLDN22 /// WWC2 (11732394_at) / RFU HLA-DPB1 (11760878_x_at) / Fold change /veh HLA-DPB1 (11760878_x_at) / RFU SPINT1 (11716480_a_at) / Fold change /veh SPINT1 (11716480_a_at) / RFU GAP43 (11754022_s_at) / Fold change /veh GAP43 (11754022_s_at) / RFU A4GNT (11735810_at) / Fold change /veh A4GNT (11735810_at) / RFU PRB3 (11715151_x_at) / Fold change /veh PRB3 (11715151_x_at) / RFU TUBB4B (11761932_at) / Fold change /veh TUBB4B (11761932_at) / RFU CAPN14 (11732068_a_at) / Fold change /veh CAPN14 (11732068_a_at) / RFU TMCC2 (11721928_a_at) / Fold change /veh TMCC2 (11721928_a_at) / RFU IRGQ (11745062_a_at) / Fold change /veh IRGQ (11745062_a_at) / RFU FAM174B (11720279_a_at) / Fold change /veh FAM174B (11720279_a_at) / RFU TMPRSS4 (11748680_a_at) / Fold change /veh TMPRSS4 (11748680_a_at) / RFU FAM212B (11763350_a_at) / Fold change /veh FAM212B (11763350_a_at) / RFU PLEKHG5 (11743358_a_at) / Fold change /veh PLEKHG5 (11743358_a_at) / RFU ZSCAN30 (11745921_a_at) / Fold change /veh ZSCAN30 (11745921_a_at) / RFU CMKLR1 (11741424_a_at) / Fold change /veh CMKLR1 (11741424_a_at) / RFU LOC101060620 /// MAPK8IP1 (11723275_at) / Fold change /veh LOC101060620 /// MAPK8IP1 (11723275_at) / RFU SPTSSB (11747773_x_at) / Fold change /veh SPTSSB (11747773_x_at) / RFU PRSS12 (11739890_at) / Fold change /veh PRSS12 (11739890_at) / RFU BIN1 (11741810_x_at) / Fold change /veh BIN1 (11741810_x_at) / RFU WNT11 (11732464_a_at) / Fold change /veh WNT11 (11732464_a_at) / RFU C10orf10 (11716521_a_at) / Fold change /veh C10orf10 (11716521_a_at) / RFU C5orf56 (11738089_at) / Fold change /veh C5orf56 (11738089_at) / RFU CYB561 (11721691_x_at) / Fold change /veh CYB561 (11721691_x_at) / RFU ANKRD19P (11752326_a_at) / Fold change /veh ANKRD19P (11752326_a_at) / RFU OR2T12 /// OR2T33 /// OR2T8 (11738714_s_at) / Fold change /veh OR2T12 /// OR2T33 /// OR2T8 (11738714_s_at) / RFU VCAN (11748164_a_at) / Fold change /veh VCAN (11748164_a_at) / RFU JSRP1 (11732532_at) / Fold change /veh JSRP1 (11732532_at) / RFU KRTAP10-11 (11738290_x_at) / Fold change /veh KRTAP10-11 (11738290_x_at) / RFU MYO3A (11730013_a_at) / Fold change /veh MYO3A (11730013_a_at) / RFU EBF3 (11725865_a_at) / Fold change /veh EBF3 (11725865_a_at) / RFU CAMK2N1 (11719241_x_at) / Fold change /veh CAMK2N1 (11719241_x_at) / RFU C5orf56 (11738088_a_at) / Fold change /veh C5orf56 (11738088_a_at) / RFU OLFML3 (11715873_a_at) / Fold change /veh OLFML3 (11715873_a_at) / RFU LOC100653217 /// NTM (11731650_a_at) / Fold change /veh LOC100653217 /// NTM (11731650_a_at) / RFU MAPK11 (11762145_a_at) / Fold change /veh MAPK11 (11762145_a_at) / RFU FIZ1 (11724087_x_at) / Fold change /veh FIZ1 (11724087_x_at) / RFU OASL (11726364_x_at) / Fold change /veh OASL (11726364_x_at) / RFU SOX15 (11748057_x_at) / Fold change /veh SOX15 (11748057_x_at) / RFU CD79A (11719716_a_at) / Fold change /veh CD79A (11719716_a_at) / RFU HIST1H1D (11736915_at) / Fold change /veh HIST1H1D (11736915_at) / RFU CASKIN2 (11723855_a_at) / Fold change /veh CASKIN2 (11723855_a_at) / RFU LOC730098 (11760151_x_at) / Fold change /veh LOC730098 (11760151_x_at) / RFU OR4N2 (11742367_at) / Fold change /veh OR4N2 (11742367_at) / RFU PRRT2 (11749266_a_at) / Fold change /veh PRRT2 (11749266_a_at) / RFU SNX32 (11753110_a_at) / Fold change /veh SNX32 (11753110_a_at) / RFU CDHR5 (11726645_a_at) / Fold change /veh CDHR5 (11726645_a_at) / RFU RCAN1 (11760418_a_at) / Fold change /veh RCAN1 (11760418_a_at) / RFU FAM167A (11723789_a_at) / Fold change /veh FAM167A (11723789_a_at) / RFU FAM26E (11764081_at) / Fold change /veh FAM26E (11764081_at) / RFU ISYNA1 (11749810_s_at) / Fold change /veh ISYNA1 (11749810_s_at) / RFU ACY1 (11761880_at) / Fold change /veh ACY1 (11761880_at) / RFU 11764098_at / Fold change /veh 11764098_at / RFU SAMD14 (11745864_x_at) / Fold change /veh SAMD14 (11745864_x_at) / RFU NPB (11741838_a_at) / Fold change /veh NPB (11741838_a_at) / RFU TMPRSS6 (11731388_a_at) / Fold change /veh TMPRSS6 (11731388_a_at) / RFU KRTAP10-2 (11738614_at) / Fold change /veh KRTAP10-2 (11738614_at) / RFU ARHGAP8 /// PRR5-ARHGAP8 (11727945_x_at) / Fold change /veh ARHGAP8 /// PRR5-ARHGAP8 (11727945_x_at) / RFU KRTAP5-7 /// NADSYN1 (11734609_at) / Fold change /veh KRTAP5-7 /// NADSYN1 (11734609_at) / RFU RASL12 (11751679_a_at) / Fold change /veh RASL12 (11751679_a_at) / RFU CDKN2B (11736163_a_at) / Fold change /veh CDKN2B (11736163_a_at) / RFU PRF1 (11729649_at) / Fold change /veh PRF1 (11729649_at) / RFU, ZNF638 /// ZNF638-IT1 / Fold change vs veh, ZNF638 /// ZNF638-IT1 / RFU, PANK3 / Fold change vs veh, PANK3 / RFU, SH3YL1 / Fold change vs veh, SH3YL1 / RFU, ZEB2 / Fold change vs veh, ZEB2 / RFU, NRIP1 / Fold change vs veh, NRIP1 / RFU, PTTG1IP / Fold change vs veh, PTTG1IP / RFU, CAPN2 / Fold change vs veh, CAPN2 / RFU, MED14 / Fold change vs veh, MED14 / RFU, SNORA58 / Fold change vs veh, SNORA58 / RFU, C1orf63 / Fold change vs veh, C1orf63 / RFU, LRRFIP1 / Fold change vs veh, LRRFIP1 / RFU, NDUFAF7 / Fold change vs veh, NDUFAF7 / RFU, SLC12A2 / Fold change vs veh, SLC12A2 / RFU, IBTK / Fold change vs veh, IBTK / RFU, ESF1 / Fold change vs veh, ESF1 / Fold change vs veh, TMEM50B / RFU, TAOK1 / Fold change vs veh, TAOK1 / RFU, ACBD3 / Fold change vs veh, ACBD3 / RFU, TMA16 / Fold change vs veh, TMA16 / RFU, RWDD3 / Fold change vs veh, RWDD3 / RFU, BCAT1 / Fold change vs veh, BCAT1 / RFU, EDEM3 / Fold change vs veh, EDEM3 / RFU, TMEM33 / Fold change vs veh, TMEM33 / RFU, WDR75 / Fold change vs veh, WDR75 / RFU, AHCTF1 / Fold change vs veh, AHCTF1 / RFU, TFRC / Fold change vs veh, TFRC / RFU, ZDHHC17 / Fold change vs veh, ZDHHC17 / RFU, NOM1 / Fold change vs veh, NOM1 / RFU, ARL8B / Fold change vs veh, ARL8B / RFU, ZBTB11 / Fold change vs veh, ZBTB11 / RFU, TAMM41 / Fold change vs veh, TAMM41 / RFU, KIAA1704 /// LOC100996395 / Fold change vs veh, KIAA1704 /// LOC100996395 / RFU, ING1 / Fold change vs veh, ING1 / RFU, TRMT61B / Fold change vs veh, TRMT61B / RFU, FUBP3 / Fold change vs veh, FUBP3 / RFU, TP53 / Fold change vs veh, TP53 / RFU, TNKS2 / Fold change vs veh, TNKS2 / RFU, ZFP14 / Fold change vs veh, ZFP14 / RFU, ACTR2 / Fold change vs veh, ACTR2 / RFU, PPP3R1 / Fold change vs veh, PPP3R1 / RFU, PIK3R1 / Fold change vs veh, PIK3R1 / RFU, HNRNPA1 / Fold change vs veh, HNRNPA1 / RFU, RNF170 / Fold change vs veh, RNF170 / RFU, ZNF28 / Fold change vs veh, ZNF28 / RFU, RNGTT / Fold change vs veh, RNGTT / RFU, OGT / Fold change vs veh, OGT / RFU, BRD1 / Fold change vs veh, BRD1 / RFU, MARS / Fold change vs veh, MARS / RFU, ZNF655 / Fold change vs veh, ZNF655 / RFU, FAHD1 / Fold change vs veh, FAHD1 / RFU, BDP1 / Fold change vs veh, BDP1 / RFU, LRRCC1 / Fold change vs veh, LRRCC1 / RFU, ARID1A / Fold change vs veh, ARID1A / RFU, ZNF146 / Fold change vs veh, ZNF146 / RFU, ZNF330 / Fold change vs veh, ZNF330 / RFU, GPN3 / Fold change vs veh, GPN3 / RFU, C9orf123 / Fold change vs veh, C9orf123 / RFU, N4BP2L2 / Fold change vs veh, N4BP2L2 / RFU, ARFIP1 / Fold change vs veh, ARFIP1 / RFU, FAM179B / Fold change vs veh, FAM179B / RFU, BCL10 / Fold change vs veh, BCL10 / RFU, UHRF1BP1L / Fold change vs veh, UHRF1BP1L / RFU, BET1 / Fold change vs veh, BET1 / RFU, CNOT2 / Fold change vs veh, CNOT2 / RFU, ZNF268 / Fold change vs veh, ZNF268 / Fold change vs veh, ZNF507 / RFU, DGCR2 / Fold change vs veh, DGCR2 / RFU, WDSUB1 / Fold change vs veh, WDSUB1 / Fold change vs veh, HSP90B1 /// MIR3652 / RFU, ADSS / Fold change vs veh, ADSS / RFU, GK / Fold change vs veh, GK / RFU, ZNF148 / Fold change vs veh, ZNF148 / RFU, TAF9 / Fold change vs veh, TAF9 / RFU, SLC1A5 / Fold change vs veh, SLC1A5 / RFU, SLMO2 / Fold change vs veh, SLMO2 / RFU, ABCC4 / Fold change vs veh, ABCC4 / RFU, LOC101060439 /// RAP1B / Fold change vs veh, LOC101060439 /// RAP1B / RFU, RFX7 / Fold change vs veh, RFX7 / RFU, GTPBP10 / Fold change vs veh, GTPBP10 / RFU, CNEP1R1 / Fold change vs veh, CNEP1R1 / RFU, BIVM-ERCC5 /// ERCC5 / Fold change vs veh, BIVM-ERCC5 /// ERCC5 / RFU, ILF3 / Fold change vs veh, ILF3 / RFU 11762660_at / Fold change /veh 11762660_at / RFU VCAN (11757783_s_at) / Fold change /veh VCAN (11757783_s_at) / RFU DDX43 (11728927_at) / Fold change /veh DDX43 (11728927_at) / RFU KRT8 (11758188_x_at) / Fold change /veh KRT8 (11758188_x_at) / RFU NKD1 (11759106_at) / Fold change /veh NKD1 (11759106_at) / RFU SRD5A1 (11742802_a_at) / Fold change /veh SRD5A1 (11742802_a_at) / RFU TPSAB1 /// TPSB2 (11721975_s_at) / Fold change /veh TPSAB1 /// TPSB2 (11721975_s_at) / RFU GSTM3 (11746129_a_at) / Fold change /veh GSTM3 (11746129_a_at) / RFU IL23R (11737362_x_at) / Fold change /veh IL23R (11737362_x_at) / RFU TMEM51 (11727254_a_at) / Fold change /veh TMEM51 (11727254_a_at) / RFU PIWIL2 (11732686_x_at) / Fold change /veh PIWIL2 (11732686_x_at) / RFU ORM1 (11744905_x_at) / Fold change /veh ORM1 (11744905_x_at) / RFU CCDC152 (11743942_at) / Fold change /veh CCDC152 (11743942_at) / RFU ECM1 (11717891_a_at) / Fold change /veh ECM1 (11717891_a_at) / RFU IL23R (11748794_a_at) / Fold change /veh IL23R (11748794_a_at) / RFU TNFAIP8L3 (11732012_x_at) / Fold change /veh TNFAIP8L3 (11732012_x_at) / RFU MBOAT4 (11741988_at) / Fold change /veh MBOAT4 (11741988_at) / RFU 11764193_at / Fold change /veh 11764193_at / RFU TMEM53 (11763286_at) / Fold change /veh TMEM53 (11763286_at) / RFU MAGEB2 (11727129_at) / Fold change /veh MAGEB2 (11727129_at) / RFU TMEM200A (11744735_a_at) / Fold change /veh TMEM200A (11744735_a_at) / RFU CCDC152 (11751479_a_at) / Fold change /veh CCDC152 (11751479_a_at) / RFU FAM211A (11726209_a_at) / Fold change /veh FAM211A (11726209_a_at) / RFU RGS16 (11746705_a_at) / Fold change /veh RGS16 (11746705_a_at) / RFU VCAN (11755009_s_at) / Fold change /veh VCAN (11755009_s_at) / RFU RHOB (11743442_s_at) / Fold change /veh RHOB (11743442_s_at) / RFU RGS16 (11720943_a_at) / Fold change /veh RGS16 (11720943_a_at) / RFU RGS16 (11720944_at) / Fold change /veh RGS16 (11720944_at) / RFU, VPS4B / Fold change vs veh, VPS4B / RFU, CREB1 / Fold change vs veh, CREB1 / RFU, DNAJC13 / Fold change vs veh, DNAJC13 / RFU, GNAQ / Fold change vs veh, GNAQ / RFU, CDK5R1 / Fold change vs veh, CDK5R1 / RFU, ZRANB3 / Fold change vs veh, ZRANB3 / RFU, CUL4A / Fold change vs veh, CUL4A / RFU, CCNY / Fold change vs veh, CCNY / RFU, UFL1 / Fold change vs veh, UFL1 / RFU, COG3 / Fold change vs veh, COG3 / RFU, DIAPH2 / Fold change vs veh, DIAPH2 / RFU, SKA2 / Fold change vs veh, SKA2 / RFU, AFF3 / Fold change vs veh, AFF3 / RFU, LMF1 / Fold change vs veh, LMF1 / RFU, IPO11 / Fold change vs veh, IPO11 / RFU, DFFB / Fold change vs veh, DFFB / RFU, FOXP1 / Fold change vs veh, FOXP1 / RFU, CARD8 / Fold change vs veh, CARD8 / RFU, STRN3 / Fold change vs veh, STRN3 / RFU, ADK / Fold change vs veh, ADK / RFU, RASSF2 / Fold change vs veh, RASSF2 / RFU, WIPF1 / Fold change vs veh, WIPF1 / RFU, LARP1B / Fold change vs veh, LARP1B / RFU, RASA1 / Fold change vs veh, RASA1 / RFU, RB1 / Fold change vs veh, RB1 / RFU, PPFIA1 / Fold change vs veh, PPFIA1 / RFU, MAT2A / Fold change vs veh, MAT2A / RFU, CCT5 / Fold change vs veh, CCT5 / RFU, WDR92 / Fold change vs veh, WDR92 / RFU, CUX1 / Fold change vs veh, CUX1 / RFU, TTC7A / Fold change vs veh, TTC7A / RFU, TMEM135 / Fold change vs veh, TMEM135 / RFU, DEPTOR / Fold change vs veh, DEPTOR / RFU, CPM / Fold change vs veh, CPM / RFU, DNAJB6 / Fold change vs veh, DNAJB6 / RFU, CACNA2D3 / Fold change vs veh, CACNA2D3 / RFU, DTX4 / Fold change vs veh, DTX4 / RFU, TFCP2 / Fold change vs veh, TFCP2 / RFU, GMCL1 /// GMCL1P1 / Fold change vs veh, GMCL1 /// GMCL1P1 / RFU, AEBP2 / Fold change vs veh, AEBP2 / RFU, SNHG1 /// SNORD22 /// SNORD25 /// SNORD26 /// SNORD27 /// SNORD28 /// SNORD29 /// SNORD31 / Fold change vs veh, SNHG1 /// SNORD22 /// SNORD25 /// SNORD26 /// SNORD27 /// SNORD28 /// SNORD29 /// SNORD31 / Fold change (Aza/veh), C12orf56 (ProbeSet 11735607_a_at) / Fold change (ACY-1035/veh), C12orf56 (ProbeSet 11735607_a_at) / Fold change (Aza/veh), FGFR1OP (ProbeSet 11751329_s_at) / Fold change (ACY-1035/veh), FGFR1OP (ProbeSet 11751329_s_at) / Fold change (Aza/veh), VPS36 (ProbeSet 11739960_a_at) / Fold change (ACY-1035/veh), VPS36 (ProbeSet 11739960_a_at) / RFU SYPL1 (11715823_x_at) / Fold change /veh SYPL1 (11715823_x_at) / RFU IGFBP7 (11715501_s_at) / Fold change /veh IGFBP7 (11715501_s_at) / RFU REEP3 (11722064_at) / Fold change /veh REEP3 (11722064_at) / RFU IGLL1 (11728026_x_at) / Fold change /veh IGLL1 (11728026_x_at): dose or concentration left out as unconfirmed
Details: ProbeSet 11717702_a_at; LIST D

`Nc1ccc(-c2cccs2)cc1NC(=O)c1ccc2c(c1)cc(C1CC1)n2CCN1CCOCC1` [ACY-1035] was tested, and the “RFU, RB1” value was 245.16 RFU.
